Measurements reported in article PMC7248975, “Sigma-1 Receptor Positron Emission Tomography: A New Molecular Imaging Approach Using (S)-(−)-[^18F]Fluspidine in Glioblastoma” (Molecules, 2020).

Tests used:
sigma-1 receptor (sig1R) [1] = molecular target: T1, sigma-1 receptor (sig1R) (Mus musculus, UniProt O55242); assay: homologous radioligand displacement by autoradiography; PET in sig1R-knockout vs control mice
T1 construct: gene Sigmar1; mouse brain cryosections, contralateral striatum

sigma-1 receptor (sig1R) [2] = molecular target: T2, sigma-1 receptor (sig1R) (Homo sapiens, UniProt Q99720); assay: radioligand binding and displacement of (+)-[3H]pentazocine in U87-MG cells; autoradiography of tumour
T2 construct: gene SIGMAR1; U87-MG cells
T2 sequence (Q99720 whole entry): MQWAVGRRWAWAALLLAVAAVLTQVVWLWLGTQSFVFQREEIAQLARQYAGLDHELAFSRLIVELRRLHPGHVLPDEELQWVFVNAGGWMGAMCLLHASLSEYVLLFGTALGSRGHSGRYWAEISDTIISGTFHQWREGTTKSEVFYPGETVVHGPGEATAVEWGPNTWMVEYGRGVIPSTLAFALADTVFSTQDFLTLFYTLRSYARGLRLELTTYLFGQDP

T1 sequence (O55242 whole entry): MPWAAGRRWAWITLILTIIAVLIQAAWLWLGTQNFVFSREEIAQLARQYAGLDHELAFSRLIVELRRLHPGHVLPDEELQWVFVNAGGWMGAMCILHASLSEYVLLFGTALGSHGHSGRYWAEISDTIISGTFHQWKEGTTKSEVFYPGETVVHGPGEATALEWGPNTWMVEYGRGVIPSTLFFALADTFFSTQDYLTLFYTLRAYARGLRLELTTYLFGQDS

## FCC[C@@H]1OC2(CCN(Cc3ccccc3)CC2)c2ccccc21 [(S)-(−)-[^18F]fluspidine]
sigma-1 receptor (sig1R) [1]
  Kd: 17 ± 4.8 nM
sigma-1 receptor (sig1R) [2]
  Kd: 16.7 nM
